Data on one compound can be found in patent US20220331353A1, “SYNERGISTIC COMPOSITIONS AND METHODS TO INCREASE VASCULAR NITRIC OXIDE TO TREAT ENDOTHELIAL DYSFUNCTION AND RELATED CONDITIONS” (Calroy Health Sciences, LLC, priority 2021, published 2022).

A short description of the test: Transdermal hydrogen sulfide on forearm after N-acetyl cysteine, Interscan Halimeter PLUS. Type of test: in vivo, human. As to conditions: 600 mg oral; for Transdermal Hydrogen Sulfide H2S: adult male, forearm. On the procedure:
We hypothesized that formula 2 sustained a higher level of bioavailable NO than formula 1 because N-acetyl cysteine generates hydrogen sulfide in the body. To test this hypothesis, we measured transdermal hydrogen sulfide on the surface of the forearm after an adult subject ingested 600 mg of N-acetyl cysteine. The test was performed using Interscan Halimeter® PLUS with a simple modification of sample collection method. Hydrogen sulfide, the primary volatile sulfur compounds detectable by the device, was measured in triplicate for 6 hours after dosing with N-acetyl cysteine (Table IV). […] The data support a mechanism wherein N-acetyl cysteine increases hydrogen sulfide production that boosts NO availability and activity in the body.

As for `CC(=O)N[C@@H](CS)C(=O)O` [N-acetyl cysteine], the “Transdermal Hydrogen Sulfide H2S” value reads like this: (0 h) 16 ppb; (2 h) 27 ppb; (3 h) 46 ppb; (4 h) 51 ppb; (5 h) 40 ppb; (6 h) 16 ppb. In addition, the transdermal hydrogen sulfide runs as follows: (peak at 4 hours) 51 ppb; (starting value) 16 ppb; (within 2 hours) 27 ppb.
